Test system: male participants
Assay: Male participants rated strength of erections and orgasms on a scale of 1 to 10 after ingesting PDE5 inhibitor and cannabis/THC
Assay type: in vivo, human

Measured: PDE5 inhibiting effect of THC taken alone

Method: Male participants rated the strength of their erections and orgasms, and female participants rated the strength of their threshold desire, arousal and orgasms, on a scale of 1 to 10.
This first time, the subject took the full prescription dose of sildenafil (100 mg) in pill form together with an infused cannabis edible containing 20 mg of THC.
The subject in Examples 1 and 2 further reduced the dosage of sildenafil to 40 mg, 30 mg, and 20 mg in stages, together with cannabis dosages that delivered 20 mg, 15 mg, or 10 mg of THC.
A test subject consumed ingestible dosage forms of cannabis and sildenafil. This first time, the subject took 50% of the full prescription dose of sildenafil (50 mg) in pill form together with an infused cannabis edible containing 20 mg of THC.
The subject in Example 4 further reduced the dosage of sildenafil to 40 mg and used the same cannabis dosage that delivered 20 mg of THC.
The subject in Examples 4 and 5 further reduced the dosage of sildenafil to 30 mg, 20 mg, and 10 mg in stages, together with cannabis dosages that delivered 20 mg, 15 mg, or 10 mg of THC.
A test subject consumed ingestible dosage forms of cannabis and sildenafil. This first time, the subject took 60% of the full prescription dose of sildenafil (60 mg) in pill form together with an infused cannabis edible containing 25 mg of THC.
The test subject in Example 7 further reduced the dosage of sildenafil to 40 mg and used a cannabis dosage that delivered 20 mg of THC.
The subject in Examples 7 and 8 further reduced the dosage of sildenafil to 30 mg, 20 mg, and 10 mg in stages, together with cannabis dosages that delivered 20 mg, 15 mg, or 10 mg of THC.

CCCCCc1cc(O)c2c(c1)OC(C)(C)[C@@H]1CCC(C)=C[C@@H]21 [THC, tetrahydrocannabinol]
no noticeable PDE5 inhibiting effect: Example 1: person | Example 4: person | Example 7: person | Example 10: person

— patent publication US20240408116A1, “COMPOSITIONS FOR ENHANCING SEXUAL PLEASURE WITH REDUCED PHAR[…] OF PDE5 INHIBITOR” (priority 2023, published 2024)
